Activity calls are given as the source filed them. The calls are words filed in the database; no cut-off is given here.
Assays:
Leishmania donovani [1] = test: Inhibition of Leishmania donovani HOM/IN/80/DD8 in hamster at 50 mg/kg, ip after 7 days; format: functional; settings: for inhibition in vivo at 50 mg/kg: HOM/IN/80/DD8, ip, 168 h, route intraperitoneal
Hamster = test: Toxicity in hamster at 50 mg/kg; format: organism-based; parameters: dose 50 mg/kg; settings: cricetinae, in vivo
Leishmania donovani [2] = test: Inhibition of Leishmania donovani HOM/IN/80/DD8 in hamster at 12.5 mg/kg, po after 7 days; format: functional; settings: HOM/IN/80/DD8, 168 h
Leishmania donovani [3] = test: Inhibition of Leishmania donovani HOM/IN/80/DD8 in hamster at 12.5 mg/kg, po after 28 days; format: functional; settings: HOM/IN/80/DD8, 672 h
Leishmania donovani [4] = test: Inhibition of Leishmania donovani HOM/IN/80/DD8 in hamster at 50 mg/kg, ip after 28 days; format: functional; settings: HOM/IN/80/DD8, ip, 672 h, route intraperitoneal
Leishmania donovani [5] = test: Inhibition of Leishmania donovani HOM/IN/80/DD8 in hamster at 50 mg/kg, po after 28 days; format: functional; settings: HOM/IN/80/DD8, 672 h
Leishmania donovani [6] = test: Inhibition of Leishmania donovani HOM/IN/80/DD8 in hamster at 50 mg/kg, po after 7 days; format: functional; settings: HOM/IN/80/DD8, 168 h

`CS/C(=C/C(=O)/C=C/C1=C(C)CCCC1(C)C)Nc1cccc(F)c1` showed an inhibition in vivo at 50 mg/kg (Leishmania donovani [1]) of 53%.

`CS/C(=C/C(=O)/C=C/C1=C(C)CCCC1(C)C)Nc1ccccc1` was tested, and the Activity (Leishmania donovani [1]) was “inactive”.

In the case of `CS/C(=C/C(=O)/C=C/C1=C(C)CCCC1(C)C)Nc1ccc(Cl)cc1`, the inhibition in vivo at 50 mg/kg (Leishmania donovani [1]) was 18%.

For `CC1=C(/C=C/C(=O)C=C(N2CCNCC2)N2CCNCC2)C(C)(C)CCC1`, the Activity (Hamster) was “Toxic”.

`COc1ccc(N/C(=C\C(=O)/C=C/C2=C(C)CCCC2(C)C)SC)cc1` was tested, and the inhibition in vivo at 50 mg/kg (Leishmania donovani [1]) was 52%.

`CS/C(=C/C(=O)/C=C/C1=C(C)CCCC1(C)C)NC1CCCCC1` showed an inhibition in vivo at 50 mg/kg (Leishmania donovani [1]) of 46%.

For `CCN(/C(=C\C(=O)/C=C/C1=C(C)CCCC1(C)C)SC)c1ccccc1`, the Activity (Leishmania donovani [1]) was “inactive”.

With `CC1=C(/C=C/C(=O)C=C(N2CCOCC2)N2CCOCC2)C(C)(C)CCC1` the Activity (Leishmania donovani [1]) was “inactive”.

With `CCCCCCCCCCCCCCCCOP(=O)([O-])OCC[N+](C)(C)C` [MILTEFOSINE] the inhibition in vivo at 12.5 mg/kg (Leishmania donovani [2]) was 94% and the inhibition in vivo at 12.5 mg/kg (Leishmania donovani [3]) was 69%.

Compound `CS/C(=C/C(=O)/C=C/C1=C(C)CCCC1(C)C)Nc1ccc(F)cc1` has an inhibition in vivo at 50 mg/kg (Leishmania donovani [1]) of 31%.

Work on `CC1=C(/C=C/C(=O)C=C2NCCN2)C(C)(C)CCC1` yielded an inhibition in vivo at 50 mg/kg (Leishmania donovani [1]) of 30%, an inhibition in vivo at 50 mg/kg (Leishmania donovani [4]) of 65% and an inhibition in vivo at 50 mg/kg (Leishmania donovani [5]) of 71%. It also gave an inhibition in vivo at 50 mg/kg (Leishmania donovani [6]) of 40%.
